Assays:
Assay in all cases: relative viability (nuclei count vs DMSO), 5 days (fraction); higher = more cells survive
Tosedostat = compound: CC(C)C[C@@H](C(=O)N[C@H](C(=O)OC1CCCC1)c1ccccc1)[C@H](O)C(=O)NO [Tosedostat]
How it was run: (§1)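 Five library-drug doses, separated by factors of √10, were pinned into 1536-well plates holding lung cancer cell lines after an overnight stay at 37 °C. Cells were fixed, permeabilised and Hoechst-stained in one step after 5 days without medium change, then imaged at 4×. Viability compares treated-well with vehicle-well nuclei, counted in MetaXpress, as a median across plates. Passing plates had control CV below 25% and at least one doubling.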

[1] = compound: CC1=NN=C(O1)C2=NN=C(C=C2)N3CCC(CC3)OC4=C(C=CC(=C4)F)Cl
How it was run: as §1

[2] = compound: CC1=NN=C(O1)C2=NN=C(C=C2)N3CCC(CC3)OC4=C(C=CC(=C4)F)Cl + CC(C)C[C@H](NC(=O)[C@H](Cc1ccccc1)NC(=O)c1cnccn1)B(O)O [Bortezomib] (partner 0.002 µM)
How it was run: (§2)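 Relative viability divides the nuclei count in treated wells by that in vehicle wells. Lung cancer cell lines were seeded in 1536-well plates, dosed by pin tool the next day, and fixed and stained after 5 days in one step with final 0.05% Triton X-100, 1% formaldehyde and 1 ug/ml Hoechst. Dosing was a single drug or a fixed anchor-drug dose plus five library-drug doses (not always all listed) in √10 steps, and values are medians of duplicate plates imaged at 4×.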

Tosedostat + Alpelisib = compound: CC(C)C[C@@H](C(=O)N[C@H](C(=O)OC1CCCC1)c1ccccc1)[C@H](O)C(=O)NO [Tosedostat] + Cc1nc(NC(=O)N2CCC[C@H]2C(N)=O)sc1-c1ccnc(C(C)(C)C(F)(F)F)c1 [Alpelisib] (partner 2 µM)
How it was run: as §2

Cell Line	relative viability (Tosedostat; 0.02 µM)	relative viability (Tosedostat; 0.06325 µM)	relative viability (Tosedostat; 0.2 µM)	relative viability (Tosedostat; 0.6325 µM)	relative viability (Tosedostat; 2 µM)	relative viability ([1]; 0.253 µM)	relative viability ([1]; 0.8 µM)	relative viability ([1]; 2.53 µM)	relative viability ([1]; 8 µM)	relative viability ([2]; first compound 0.253 µM)	relative viability ([2]; first compound 0.8 µM)	relative viability ([2]; first compound 2.53 µM)	relative viability ([2]; first compound 8 µM)	relative viability (Tosedostat + Alpelisib; first compound 0.02 µM)	relative viability (Tosedostat + Alpelisib; first compound 0.06325 µM)	relative viability (Tosedostat + Alpelisib; first compound 0.2 µM)	relative viability (Tosedostat + Alpelisib; first compound 0.6325 µM)	relative viability (Tosedostat + Alpelisib; first compound 2 µM)
Calu-6	1.08	0.925	0.928	0.831	0.733	0.673	0.682	0.694	0.61	0.764	0.807	0.832	0.804	1.18	0.883	0.91	0.689	0.597
EBC-1	0.994	0.934	0.946	0.785	0.683	0.663	0.735	0.81	0.606	0.479	0.476	0.444	0.412	0.771	0.87	0.711	0.552	0.541
NCI-H596	1.03	1.08	1.12	1.01	0.967	0.982	0.806	1.06	0.813	–	0.85	1.01	0.713	0.48	0.51	0.483	0.619	0.552
A-427	1.04	0.955	0.992	0.941	0.908	0.904	–	0.956	0.789	0.867	–	0.864	0.802	1.1	1.09	1.12	1.12	0.983
NCI-H441	1.12	0.92	0.749	0.69	0.731	0.672	0.388	0.595	0.519	0.294	0.362	0.305	0.234	0.749	0.582	0.597	0.501	0.534
NCI-H1563	1.03	1.07	1.05	1.13	1.08	0.986	0.954	0.995	0.993	0.872	0.829	0.823	0.934	0.879	1	0.956	1.16	1.1
LOU-NH91	1.04	1.01	0.937	0.919	0.86	–	0.866	0.908	0.957	–	0.517	0.479	0.436	0.695	0.704	0.741	0.706	0.674
NCI-H3122	1.06	1.01	1.03	1.02	1.02	0.47	0.444	0.478	0.432	0.662	0.707	0.71	0.566	0.861	0.809	0.844	0.774	0.997
HOP-62	1.12	0.977	0.932	0.945	0.9	0.77	0.529	0.707	0.587	0.577	–	0.764	0.419	0.92	1.01	0.697	0.984	0.744
HARA	1.15	0.977	0.922	0.887	0.774	0.484	0.387	0.538	0.355	0.483	0.335	0.353	0.293	0.887	0.839	0.875	0.716	0.74
SW 1573	1.07	0.95	0.881	0.85	0.876	0.894	0.981	0.942	0.615	0.865	0.834	1.01	1.15	0.578	0.76	0.641	0.588	0.567
NCI-H1993	1	0.958	0.847	0.631	0.703	0.772	0.864	0.954	0.833	0.922	0.901	0.925	0.966	0.61	0.688	0.843	0.561	0.588
HCC-78	0.938	1.04	1	1.04	0.958	0.659	0.615	0.578	0.551	0.326	0.403	0.393	0.363	0.294	0.338	0.257	0.336	0.454
IA-LM	1.07	0.963	0.918	0.858	0.769	0.169	0.142	0.171	0.155	0.17	0.137	0.132	0.186	0.735	0.845	0.714	0.656	0.617
NCI-H647	1.02	1.01	1.02	0.977	0.883	0.65	0.642	0.66	0.413	0.539	0.742	0.786	0.606	1.3	1.13	1.02	1.09	1.14
NCI-H520	1.02	0.977	0.937	1.15	1.14	0.91	0.813	1.16	0.968	0.378	0.5	0.518	0.542	0.805	0.807	0.929	1.12	0.946
NCI-H1355	0.961	0.936	1.04	0.838	0.905	0.685	0.592	0.915	0.82	–	–	1.1	0.945	0.704	0.798	0.854	0.667	0.688
COR-L23	1.13	1	0.965	1.01	1.06	0.826	0.891	0.797	0.655	0.737	0.754	0.836	0.68	0.871	0.727	0.746	0.694	0.655

Cell Line	relative viability (Tosedostat; 0.02 µM)	relative viability (Tosedostat; 0.06325 µM)	relative viability (Tosedostat; 0.2 µM)	relative viability (Tosedostat; 0.6325 µM)	relative viability (Tosedostat; 2 µM)	relative viability ([1]; 0.253 µM)	relative viability ([1]; 0.8 µM)	relative viability ([1]; 2.53 µM)	relative viability ([1]; 8 µM)	relative viability ([2]; first compound 0.253 µM)	relative viability ([2]; first compound 0.8 µM)	relative viability ([2]; first compound 2.53 µM)	relative viability ([2]; first compound 8 µM)	relative viability (Tosedostat + Alpelisib; first compound 0.02 µM)	relative viability (Tosedostat + Alpelisib; first compound 0.06325 µM)	relative viability (Tosedostat + Alpelisib; first compound 0.2 µM)	relative viability (Tosedostat + Alpelisib; first compound 0.6325 µM)	relative viability (Tosedostat + Alpelisib; first compound 2 µM)
NCI-H2347	1.01	1.05	1.05	0.927	0.833	0.883	0.771	0.893	0.783	0.611	0.8	0.898	0.799	1.14	0.971	1.01	1.02	1.03
LC-2-ad	1.13	1.02	0.963	0.871	0.818	0.407	0.431	0.44	0.409	0.323	0.259	0.328	0.274	0.932	0.885	0.852	0.889	0.74
NCI-H2023	1.05	0.916	0.937	0.713	0.942	0.513	0.451	0.579	0.431	0.49	0.415	0.505	0.386	0.571	0.558	0.675	0.421	0.483
NCI-H2228	1.22	1.1	0.881	0.837	0.686	0.904	0.921	0.979	0.834	0.725	0.804	1.27	0.772	0.971	0.748	0.743	0.677	0.661
COR-L 105	1.03	0.906	0.81	0.784	0.697	0.902	0.956	0.989	1.07	0.851	0.78	0.983	1.18	0.904	0.849	1.17	0.901	0.753
NCI-H1299	1.09	0.995	0.985	0.968	0.939	0.961	0.9	0.892	0.852	0.935	0.911	0.858	0.807	1.13	1.02	1.03	1.03	0.906
PC-3 [JPC-3]	1.08	1.13	1.04	0.933	0.641	0.85	0.805	0.896	0.926	0.519	0.614	0.726	0.666	1.03	1.03	1.06	0.924	0.727
NCI-H1755	1	0.999	1.05	1	0.971	0.661	0.746	0.759	0.731	0.493	0.625	0.73	0.628	0.941	0.9	0.922	0.864	0.883
NCI-H23	1.14	0.907	0.899	0.744	0.541	0.919	0.532	0.835	0.815	0.948	–	0.894	0.838	0.615	0.745	0.536	0.513	0.538
NCI-H1915	1.15	0.949	0.998	0.988	0.891	0.607	0.341	0.497	0.407	0.4	0.31	0.456	0.323	1.1	1.05	1.04	1.07	0.907
NCI-H2405	1.16	1	0.991	0.95	0.92	0.577	0.495	0.553	0.525	0.468	0.415	0.47	0.453	0.78	0.804	0.829	0.787	0.76
EMC-BAC-2	1.09	1.16	0.952	0.919	0.811	0.98	0.872	0.891	0.615	1.02	0.964	1.02	0.95	0.722	0.725	0.73	0.737	0.682
NCI-H2087	1.21	1.06	1.11	0.819	0.942	0.771	0.569	0.659	0.621	0.45	0.437	0.489	0.512	1.21	1.08	1.21	0.876	0.91
NCI-H727	0.914	0.899	0.696	0.819	0.95	0.817	0.728	0.981	0.785	0.528	0.702	1	0.696	0.665	0.569	0.472	0.41	0.364
PC-14	1.14	0.951	0.962	0.928	0.806	0.896	0.778	0.817	0.846	0.782	0.655	0.681	0.741	0.806	0.903	0.956	0.899	0.786
NCI-H2009	1.16	0.94	0.988	0.926	0.866	0.613	0.552	0.61	0.539	0.555	0.426	0.523	0.493	1.24	1.14	1.12	1.05	0.955
NCI-H1975	0.973	1	0.884	0.788	0.733	–	0.676	0.918	0.849	–	0.367	0.299	0.306	0.658	0.602	0.537	0.473	0.495
